Experimental data: patent US10941157B2, “Pesticidal compositions and uses thereof” (Gilead Apollo, LLC, priority 2015, dated 2021)
Values after ≈ are worked out from the molar mass of the structure shown.

Legend:
Format in all cases: cell-based
[1] = system: Botrtyis cinerea (Bc); assay: In vitro pathogen growth inhibition assay, Bc; settings: 48 h, ≥90% inhibition; 48 hours vs 2% DMSO control; read-out: Compound Concentration (ppm) sufficient for ≥90% inhibition of growth, Bc
Method: (§1) A growth inhibition assay was conducted to determine the ability of compounds to control the growth of fungal pathogens, such as Botrtyis cinerea (Bc), Collectotrichum graminicola (Cg), Diplodia maydis (Dm), Fusarium moniliforme (Fm), Fusarium virguliforme (Fv), Phytophthora capsici (Pc), Rhizoctonia solani (Rs), and Septoria tritici (St). The compounds listed in Table 1 were each dissolved in DMSO at 2.5 mg/ml to produce compound stock solutions (“stocks”). […] Negative controls on each plate included 2% DMSO, water, and a blank (media+2% DMSO). Fungal spores were isolated from previously sub-cultured plates of Botrtyis cinerea (Bc), Collectotrichum graminicola (Cg), Diplodia maydis (Dm), Fusarium moniliforme (Fm), Fusarium virguliforme (Fv), Phytophthora capsici (Pc), and Septoria tritici (St). The isolated spores were diluted to individual concentrations with a 17% V8 liquid media. For Rhizoctonia solani (Rs), 1.5 mm mycelial plugs were used in place of spores and ¼ Potato Dextrose Broth (PDB) was used for dilution. The spore concentrations and plug sizes were based on growth curves generated at 48 hours for each pathogen. In a second 96-well plate, the spores or mycelial plugs, media, diluted compound solutions, and controls were combined. Once the compound was added, a true final concentration of compound in each well was measured by an OD600 reading, which adjusted for any compound precipitation that might have occurred in the well. Plate readings were repeated at both 24 and 48 hours. The blank negative control was used as a background subtraction. Additional visual ratings were performed at both 24 and 48 hours for checking on precipitation and confirming efficacy. […] Both tables list the concentration of each compound that was sufficient to ≥90% inhibition of growth for each of the fungal pathogens listed above. In addition, some of compounds were tested in a yeast growth inhibition assay for Saccharomyces cerevisiae (Sc). Table 2 lists the concentration of the tested compound that was sufficient to ≥75% inhibition of Saccharomyces cerevisiae (Sc).

[2] = system: Collectotrichum graminicola (Cg); assay: In vitro pathogen growth inhibition assay, Cg; settings: 48 h, ≥90% inhibition; 48 hours vs 2% DMSO control; read-out: Compound Concentration (ppm) sufficient for ≥90% inhibition of growth, Cg
Method: as §1

[3] = system: Diplodia maydis (Dm); assay: In vitro pathogen growth inhibition assay, Dm; settings: Stenocarpella maydis, 48 h, ≥90% inhibition; 48 hours vs 2% DMSO control; read-out: Compound Concentration (ppm) sufficient for ≥90% inhibition of growth, Dm
Method: as §1

[4] = system: Fusarium moniliforme (Fm); assay: In vitro pathogen growth inhibition assay, Fm; settings: Fusarium verticillioides; ≥90% inhibition; 48 hours vs 2% DMSO control; read-out: Compound Concentration (ppm) sufficient for ≥90% inhibition of growth, Fm
Method: as §1

[5] = system: Fusarium virguliforme (Fv); assay: In vitro pathogen growth inhibition assay, Fv; settings: ≥90% inhibition, 48 hours vs 2% DMSO control, read-out: Compound Concentration (ppm) sufficient for ≥90% inhibition of growth, Fv
Method: as §1

[6] = system: Phytophthora capsici (Pc); assay: In vitro pathogen growth inhibition assay, Pc; settings: 48 h, ≥90% inhibition, 48 hours vs 2% DMSO control, read-out: Compound Concentration (ppm) sufficient for ≥90% inhibition of growth, Pc
Method: as §1

[7] = system: Rhizoctonia solani (Rs); assay: In vitro pathogen growth inhibition assay, Rs (mycelial plugs); settings: Rhizoctonia solani, 48 h, ≥90% inhibition; mycelial plugs; 48 hours vs 2% DMSO control; read-out: Compound Concentration (ppm) sufficient for ≥90% inhibition of growth, Rs
Method: as §1

[8] = system: Septoria tritici (St); assay: In vitro pathogen growth inhibition assay, St; settings: Zymoseptoria tritici, 48 h, ≥90% inhibition; 48 hours vs 2% DMSO control; read-out: Compound Concentration (ppm) sufficient for ≥90% inhibition of growth, St
Method: as §1

IC90 [1] [µg/mL]	IC90 [2] [µg/mL]	IC90 [3] [µg/mL]	IC90 [4] [µg/mL]	IC90 [5] [µg/mL]	IC90 [6] [µg/mL]	IC90 [7] [µg/mL]	IC90 [8] [µg/mL]	Compound
≥ 0.4	≥ 0.08	≥ 0.08	0.08 (≈ 0.125 µM)	0.4 (≈ 0.624 µM)	10 (≈ 15.6 µM)	0.08 (≈ 0.125 µM)	≥ 2	COc1ccc(F)cc1[C@H](Cn1c(=O)n(C(C)(C)C(=O)N2CCCC2)c(=O)c2c(C)c(-n3nccn3)sc21)OC1CCOCC1 [Compound I-037]
0.4 (≈ 0.624 µM)	0.4 (≈ 0.624 µM)	0.4 (≈ 0.624 µM)	0.08 (≈ 0.125 µM)	0.4 (≈ 0.624 µM)	10 (≈ 15.6 µM)	0.08 (≈ 0.125 µM)	≥ 2	COc1ccc(F)cc1[C@H](Cn1c(=O)n(C(C)(C)C(=O)NC2CCC2)c(=O)c2c(C)c(-n3nccn3)sc21)OC1CCOCC1 [Compound I-038]
0.4 (≈ 0.598 µM)	2 (≈ 2.99 µM)	0.4 (≈ 0.598 µM)	0.08 (≈ 0.12 µM)	0.4 (≈ 0.598 µM)	> 50	0.4 (≈ 0.598 µM)	≥ 2	COc1ccc(F)cc1[C@H](Cn1c(=O)n(C(C)(C)C(=O)NC2CCCCC2)c(=O)c2c(C)c(-n3nccn3)sc21)OC1CCOCC1 [Compound I-039]
0.4 (≈ 0.622 µM)	≥ 0.4	≥ 0.4	0.08 (≈ 0.124 µM)	0.4 (≈ 0.622 µM)	> 50	2 (≈ 3.11 µM)	≥ 10	COc1ccc(F)cc1[C@H](Cn1c(=O)n(C(C)(C)C(=O)NCC(C)C)c(=O)c2c(C)c(-n3nccn3)sc21)OC1CCOCC1 [Compound I-040]
0.4 (≈ 0.64 µM)	2 (≈ 3.2 µM)	≥ 2	0.08 (≈ 0.128 µM)	2 (≈ 3.2 µM)	> 50	0.08 (≈ 0.128 µM)	> 10	COc1ccccc1[C@H](Cn1c(=O)n(C(C)(C)C(=O)NCC(C)C)c(=O)c2c(C)c(-n3nccn3)sc21)OC1CCOCC1 [Compound I-041]
0.4 (≈ 0.642 µM)	≥ 0.4	≥ 0.4	0.08 (≈ 0.128 µM)	0.4 (≈ 0.642 µM)	≥ 10	0.08 (≈ 0.128 µM)	≥ 10	COc1ccccc1[C@H](Cn1c(=O)n(C(C)(C)C(=O)NC2CCC2)c(=O)c2c(C)c(-n3nccn3)sc21)OC1CCOCC1 [Compound I-042]
0.4 (≈ 0.615 µM)	> 2	0.4 (≈ 0.615 µM)	0.08 (≈ 0.123 µM)	2 (≈ 3.07 µM)	> 10	0.4 (≈ 0.615 µM)	> 10	COc1ccccc1[C@H](Cn1c(=O)n(C(C)(C)C(=O)NC2CCCCC2)c(=O)c2c(C)c(-n3nccn3)sc21)OC1CCOCC1 [Compound I-043]
0.4 (≈ 0.669 µM)	0.4 (≈ 0.669 µM)	2 (≈ 3.35 µM)	0.08 (≈ 0.134 µM)	0.4 (≈ 0.669 µM)	> 50	0.4 (≈ 0.669 µM)	> 50	COc1ccc(F)cc1[C@H](Cn1c(=O)n(C(C)(C)C(=O)N2CCCC2)c(=O)c2c(C)c(-n3cccn3)sc21)OC(C)C [Compound I-044]
2 (≈ 3.13 µM)	≥ 0.4	≥ 2	0.08 (≈ 0.125 µM)	10 (≈ 15.6 µM)	> 50	2 (≈ 3.13 µM)	> 50	COc1ccc(F)cc1[C@H](Cn1c(=O)n(C(C)(C)C(=O)N2CCCC2)c(=O)c2c(C)c(-n3cccn3)sc21)OC1CCOCC1 [Compound I-045]
2 (≈ 3.45 µM)	2 (≈ 3.45 µM)	2 (≈ 3.45 µM)	0.08 (≈ 0.138 µM)	0.4 (≈ 0.69 µM)	> 50	0.4 (≈ 0.69 µM)	≥ 50	COc1ccccc1[C@H](Cn1c(=O)n(C(C)(C)C(=O)N2CCCC2)c(=O)c2c(C)c(-n3cccn3)sc21)OC(C)C [Compound I-046]
0.4 (≈ 0.674 µM)	≥ 2	2 (≈ 3.37 µM)	0.08 (≈ 0.135 µM)	0.4 (≈ 0.674 µM)	> 50	2 (≈ 3.37 µM)	> 50	COc1ccccc1[C@H](Cn1c(=O)n(C(C)(C)C(=O)N2CCCCC2)c(=O)c2c(C)c(-n3cccn3)sc21)OC(C)C [Compound I-047]
0.4 (≈ 0.625 µM)	10 (≈ 15.6 µM)	2 (≈ 3.13 µM)	0.08 (≈ 0.125 µM)	2 (≈ 3.13 µM)	> 50	2 (≈ 3.13 µM)	> 50	COc1ccc(F)cc1[C@H](Cn1c(=O)n(C(C)(C)C(=O)NC(C)C)c(=O)c2c(C)c(-n3cccn3)sc21)OC1CCC(=O)CC1 [Compound I-048]
0.4 (≈ 0.623 µM)	50 (≈ 77.9 µM)	2 (≈ 3.12 µM)	0.08 (≈ 0.125 µM)	2 (≈ 3.12 µM)	> 50	2 (≈ 3.12 µM)	> 50	COc1ccc(F)cc1[C@H](Cn1c(=O)n(C(C)(C)C(=O)NC(C)C)c(=O)c2c(C)c(-n3cccn3)sc21)O[C@H]1CC[C@@H](O)CC1 [Compound I-049]
0.08 (≈ 0.125 µM)	2 (≈ 3.12 µM)	≥ 0.08	0.08 (≈ 0.125 µM)	0.4 (≈ 0.624 µM)	50 (≈ 78 µM)	0.08 (≈ 0.125 µM)	> 50	COc1ccc(F)cc1[C@H](Cn1c(=O)n(C(C)(C)C(=O)NC(C)C)c(=O)c2c(C)c(-n3nccn3)sc21)OC1CCC(=O)CC1 [Compound I-050]
0.4 (≈ 0.613 µM)	0.4 (≈ 0.613 µM)	≥ 0.4	0.08 (≈ 0.123 µM)	0.4 (≈ 0.613 µM)	> 50	0.4 (≈ 0.613 µM)	> 50	COc1ccc(F)cc1[C@H](Cn1c(=O)n(C(C)(C)C(=O)N2CCCC2)c(=O)c2c(C)c(-n3nccn3)sc21)OC1CCC(=O)CC1 [Compound I-051]
0.4 (≈ 0.6 µM)	≥ 0.4	2 (≈ 3 µM)	0.08 (≈ 0.12 µM)	0.4 (≈ 0.6 µM)	> 50	2 (≈ 3 µM)	> 50	COc1ccc(F)cc1[C@H](Cn1c(=O)n(C(C)(C)C(=O)N2CCCCC2)c(=O)c2c(C)c(-n3nccn3)sc21)OC1CCC(=O)CC1 [Compound I-052]
0.4 (≈ 0.685 µM)	2 (≈ 3.43 µM)	≥ 2	0.08 (≈ 0.137 µM)	0.4 (≈ 0.685 µM)	> 50	2 (≈ 3.43 µM)	≥ 50	CCO[C@@H](Cn1c(=O)n(C(C)(C)C(=O)N2CCCC2)c(=O)c2c(C)c(-n3cccn3)sc21)c1cc(F)ccc1OC [Compound I-053]
0.4 (≈ 0.698 µM)	0.4 (≈ 0.698 µM)	0.4 (≈ 0.698 µM)	0.08 (≈ 0.14 µM)	≥ 0.08	> 50	0.4 (≈ 0.698 µM)	10 (≈ 17.5 µM)	CCO[C@@H](Cn1c(=O)n(C(C)(C)C(=O)NC(C)C)c(=O)c2c(C)c(-n3nccn3)sc21)c1cc(F)ccc1OC [Compound I-054]
0.4 (≈ 0.684 µM)	0.08 (≈ 0.137 µM)	≥ 0.4	0.08 (≈ 0.137 µM)	≥ 0.08	> 50	0.4 (≈ 0.684 µM)	≥ 2	CCO[C@@H](Cn1c(=O)n(C(C)(C)C(=O)N2CCCC2)c(=O)c2c(C)c(-n3nccn3)sc21)c1cc(F)ccc1OC [Compound I-055]
0.4 (≈ 0.684 µM)	0.08 (≈ 0.137 µM)	0.08 (≈ 0.137 µM)	0.08 (≈ 0.137 µM)	0.24 (≈ 0.41 µM)	30 (≈ 51.3 µM)	0.24 (≈ 0.41 µM)	26 (≈ 44.5 µM)	COc1ccc(F)cc1[C@H](Cn1c(=O)n(C(C)C(=O)N2CCCC2)c(=O)c2c(C)c(-n3nccn3)sc21)OC(C)C (some centres unmarked) [Compound I-056]
0.4 (≈ 0.698 µM)	0.08 (≈ 0.14 µM)	0.4 (≈ 0.698 µM)	0.08 (≈ 0.14 µM)	0.4 (≈ 0.698 µM)	50 (≈ 87.3 µM)	0.4 (≈ 0.698 µM)	50 (≈ 87.3 µM)	COc1ccc(F)cc1[C@H](Cn1c(=O)n([C@@H](C)C(=O)NC(C)C)c(=O)c2c(C)c(-n3nccn3)sc21)OC(C)C [Compound I-057]
0.4 (≈ 0.684 µM)	0.08 (≈ 0.137 µM)	0.08 (≈ 0.137 µM)	0.08 (≈ 0.137 µM)	0.08 (≈ 0.137 µM)	≥ 10	0.4 (≈ 0.684 µM)	> 50	COc1ccc(F)cc1[C@H](Cn1c(=O)n([C@@H](C)C(=O)N2CCCC2)c(=O)c2c(C)c(-n3nccn3)sc21)OC(C)C [Compound I-058]
